From patent publication US3965151A, “Intermediates for tricyclic benzodiazepines” (Hoffmann-La Roche Inc., priority 1975, dated 1976)

How the values were obtained:
Format in all cases: in vivo
[1] = system: mice; assay: Inclined Screen (paralyzing effects, muscle relaxant and/or sedative activity); conditions: Mus musculus, 4 h; male mice, at least four hours observation; dose expected to cause 50 per cent of mice to slide off the screen; read-out: Inclined Screen PD50
Experimental: The test is useful in determining muscle relaxant and/or sedative activity. Groups of six male mice are given the test drug (maximum dose of 500 mg/kg.) and then are left on the inclined screen at least four hours for observation of paralyzing effects severe enough to cause them to slide off the screen. If activity is observed, additional doses are tested until at least two are reached at which some, but not all the animals slide off the screen. Doses at which mice fall off the screen due to toxicity or excitation are not included in the calculation of PD50. The PD50 is determined from a graph on which dose is plotted against per cent of mice paralyzed. This PD50 value is defined as the dose in mg/kg. which can be expected to cause 50 per cent of mice to slide off the screen.

[2] = system: Cats; assay: Unanesthetized Cat (minimum symptoms, usually ataxia; muscle relaxant activity); conditions: Felis catus, oral, read-out: Unanesthetized Cat MED
Experimental: Cats are treated orally and observed for minimum symptoms--usually ataxia. One cat is used at a dose of 50 mgm/kgm. If activity is present, up to three cats/dose are used. Results are given as minimum effective dose. This test is useful in determining muscle relaxant activity.

[3] = system: mice; assay: Foot Shock (blocking of foot shock-induced fighting in pairs of mice); conditions: oral, 1 hour prior to second shocking, three out of three pairs blocked from fighting
Experimental: This test is a screen for compounds having muscle relaxant and/or anti-anxiety (tranquilizer) activity. A pair of mice is confined under a 1 liter beaker placed on a grid which presents shock to the feet. At least five fighting episodes are elicited in a 2-minute period. Pairs of mice are marked and pretreated by oral dosage 1 hour prior to a second shocking. Logarithmic-dose intervals are utilized up to a maximum of 100 mg/kgm. At the 100 per cent blocking dose, three out of three pairs must be blocked from fighting.

[4] = system: mice; assay: Antimetrazol (protection from metrazol-induced convulsive seizures); conditions: Mus musculus, oral, 1 hour before metrazol ~125 mg/kg s.c., 50 per cent of animals protected from convulsive seizures, read-out: Antimetrazole ED50
Experimental: This test determines anticonvulsant and/or sedative activity of compounds in mice. The test compound is administered orally to groups of four mice at various dose levels. One hour later, metrazol (at a dose level previously determined to be sufficient to induce convulsive seizures in all test animals ~125 mg/kg.) is administered subcutaneously and the animals are observed for protection from convulsive seizures. Results are recorded as the number of animals protected against convulsions. The dose at which 50 per cent of the animals are protected from convulsive seizures is expressed as the ED50.

Row | SMILES | ED50 [1] [mg/kg] | minimal effective dose [2] [mg/kg] | Footshock 100% Blocking Dose Level [3] [mg] | ED50 [4] [mg/kg]
1 | O=C1CN2CCOC2(c2ccccc2)c2cc(Cl)ccc2N1CCO (stereo not shown) [Compound A, 10-chloro-7-(2-hydroxyethyl)-2,3,5,11b-tetrahydro-11b-phenyloxazolo[3,2-d][1,4]benzodiazepin-6-(7H)-one] | 50 | 5 | 20 | 
2 | O=C1CN2CCOC2(c2ccccc2F)c2cc(Cl)ccc2N1CCO (stereo not shown) [Compound B, 10-Chloro-11b-(2-fluorophenyl)-7-(2-hydroxyethyl)-2,3,5,11b-tetrahydrooxazolo[3,2-d][1,4]benzodiazepin-6(7H)-one] | 15 | 5 | 4 | 2.03
